Results as given in patent US8748369B2, “Use of targeted nitroxide agents in bone healing” (University of Pittsburgh-Of the Commonwealth System of …, priority 2009, dated 2014).

Tests used:
[1] = test system: mitochondria of 32D c13 hemopoietic cells; test: Mass spectrometry of compounds in mitochondria isolated from 32D cl3 cells; assay type: cell-based, mouse; conditions: 100 μM; for permeation of the mitochondrial membrane (unconjugated compound): two hours at 37° C.; for Fmole/l 0 M mitochondrial protein (relative quantification of conjugate concentration at the target site): mouse, 2 h
Procedure: An unconjugated and conjugated NOS antagonist, (AMT, 100 μM) and an unconjugated and conjugated nitroxide derivative (4-amino-TEMPO, 100 μM) were incubated for two hours at 37° C. with 32D c13 hemopoietic cells.
Following incubation, the cells were lysed and the mitochondria isolated for a mass spectrometry analysis where compounds isolated from mitochondria were identified as Na+ adducts. […] Thus, the targeting peptides successfully direct a NOS antagonist and a nitroxide to the mitochondria.
Quantitative mass spectrometry studies were used to compare the effectiveness of several AMT peptide conjugates in permeating the mitochondrial membrane, specifically XJB-5-234, XJB-5-133, XJB-5-241, and XJB-5-127. The Fmole/10 μM mitochondrial protein ratio provides a relative quantification of conjugate concentration at the target site.

[2] = test system: mouse embryonic cells (MEC); test: ActD-induced apoptosis in MECs (PS externalization, caspase-3, DNA fragmentation); assay type: cell-based; conditions: low concentrations (10 μM)
Excerpt: Cells that annexin V-positive and PI-negative were considered apoptotic.

[3] = test system: mouse embryonic cells (MEC), mitochondria; test: EPR-based analysis of integration and reduction of nitroxide conjugates in MECs; assay type: cell-based; conditions: MECs incubated with 10 μM compound
Procedure: Electron paramagnetic resonance (“EPR”) spectroscopy was used to monitor the cellular delivery of compounds 5a and 5b shown in FIG. 3 in mouse embryonic cells (“MEC”).
The following conditions were used during the EPR-based analysis of the integration and reduction of nitroxide Gramicidin S-peptidyl conjugates in MECs. The MECs at a concentration of 10 million MECs per mL were incubated with 10 μM of 4-AT and compound 5a, respectively. Recovered nitroxide radicals in whole cells, mitochondria, and cytosol fractions were resuspended in phosphate buffer saline (“PBS”) in the presence and absence, respectively, of 2 μM K3Fe(CN)6.

[4] = test system: 32D cl 3 murine hematopoietic cells; test: Irradiation survival curves of 32D cl 3 cells; assay type: cell-based, mouse; conditions: cells incubated in compound
Procedure: FIG. 16 illustrates the effect of GS conjugated nitroxide, XJB-5-125, on gamma-irradiation dose survival curves of 32D cl 3 murine hematopoietic cells.
Irradiation survival curves were performed on cells from the 32D cl 3 mouse hematopoietic progenitor cell line, incubated in 10 μM JP4-039 for 1 hour before irradiation, or plated in methycellulose containing 10 μM JP4-030 after irradiation. Cells were irradiated from 0 to 8 Gy, plated in 0.8% methycellulose containing media, and incubated for 7 days at 37° C. Colonies of greater than 50 cells were counted and data analyzed by linear quadratic and single-hit, multi-target models.

[5] = test system: rats subjected to volume-controlled hemorrhagic shock; test: Survival of rats subjected to volume-controlled hemorrhagic shock; assay type: in vivo, rat; conditions: 2 μmol/kg intravenous, no resuscitation
Procedure: Survival of Rats Subjected to Volume-controlled Hemorrhagic Shock. Following surgical preparation and a 5-min stabilization period to obtain baseline readings, rats were subjected to hemorrhagic shock. Bleeding was carried out in 2 phases.
Initially, 21 ml/kg of blood was withdrawn over 20 min. Immediately thereafter, an additional 12.5 ml/kg of blood was withdrawn over 40 min. Thus, hemorrhage occurred over a total period of 60 min and the total blood loss was 33.5 ml/kg or approximately 55% of the total blood volume. Rats were randomly assigned to receive XJB-5-131 (2 μmmol/kg) or its vehicle, a 33:67 (v/v) mixture of DMSO and normal saline. XJB-5-131 solution or vehicle alone was administered as a continuous infusion during the last 20 min of the hemorrhage period. The total volume of fluid infused was 2.8 ml/kg and it was administered intravenously using a syringe pump (KD100, KD Scientific, New Hope, Pa.). […] At the end of the 6 hour observation period, animals that were still alive were euthanized with an overdose of KCl.
Blood pressure was recorded continuously using a commercial strain-gauge transducer, amplifier, and monitor (590603a, SpaceLabs, Redmond, Wash.). […] Hemoglobin concentration [Hb], lactate and glucose concentration were determined using an auto-analyzer (Model ABL 725, Radiometer Copenhagen, Westlake, Ohio). […]

[6] = test system: rat ileal mucosal permeability following hemorrhagic shock; test: Intestinal mucosal permeability assay (FD4) after hemorrhagic shock; assay type: in vivo; conditions: intraluminal
Procedure: Intestinal Mucosal Permeability Assay. Animals were allowed access to water but not food for 24 h prior to the experiment in order to decrease the volume of intestinal contents. The rats were instrumented as described above. A midline laparotomy was performed and the small intestine was exteriorized from the duodenojejunal junction to the ileocecal valve. A small incision was made on the antimesenteric aspect of the proximal small intestine and saline solution (1.5 ml) was injected. The bowel was ligated proximally and distally to the incision with 4-0 silk (Look, Reading, Pa.).
The small intestine was compressed gently in aboral direction along its length to displace intestinal contents into the colon. Starting 5 cm from the ileocecal valve, the ileum was partitioned into six contiguous water-tight segments. […]
The remaining four other segments were injected with solutions containing either 4-hydroxy-2,2,6,6-tetramethylpiperidine-N-oxyl (TEMPOL) or one of the Gramicidin S-based compounds. Four different final concentrations of TEMPOL in normal saline were evaluated: 0.1, 1, 5 and 20 mM. […]
Fluorescence of FD4 in the solution inside the beaker and within each gut sac was measured using a fluorescence spectrophotometer (LS-50, Perkin-Elmer, Palo Alto, Calif.) at an excitation wavelength of 492 nm and an emission wavelength of 515 nm. […]

In the case of `CC1CCN=C(N)S1` (stereo not drawn) [AMT, 2-amino-6-methyl-thiazine, reference compound], the “permeation of the mitochondrial membrane (unconjugated compound)” value [1] is reported as “do not enter the mitochondria membrane in substantial quantities”.

`CC1(C)CC(N)CC(C)(C)N1[O]` [Compound 4-AT, 4-amino-TEMPO, reference compound] was tested, and the “protection of MECs against ActD-induced apoptosis” value [2] was “afforded no protection”, the “permeation of the mitochondrial membrane (unconjugated compound)” value [1] was “only permeate the mitochondrial membrane with the assistance of the attached GS-derived targeting sequence” and the “integration into cells and mitochondria (EPR signal of nitroxide radicals)” value (from here on “integration into cells and mitochondria”) [3] was “did not effectively permeate cells or the mitochondria”.

In the case of `CC1(C)CC(O)CC(C)(C)N1[O]` [TEMPOL, 4-hydroxy-2,2,6,6-tetramethylpiperidine-N-oxyl, reference compound], the “Do of gamma-irradiation survival curve” value [4] is reported as 1.209 Gy.

For `CC(C)C[C@@H](/C=C/[C@H](Cc1ccccc1)C(=O)N1CCC[C@H]1C(=O)N[C@H](C(=O)N[C@@H](CCCNC(=O)OCc1ccccc1)C(=O)NC1CC(C)(C)N([O])C(C)(C)C1)C(C)C)NC(=O)OC(C)(C)C` [XJB-5-131], the “integration into cells and mitochondria” value [3] was “concentrated in the mitochondria”, the “integration into cells and mitochondria” value ([3]; listed as 5a) was “integration and one-electron reduction” and the survival versus vehicle [5] was “survived significantly longer”. For the same compound, the “hemorrhagic shock-induced mucosal hyperpermeability relative to control value” [6] was “approximately 60%”.

For `CC(C)C[C@@H](/C=C/[C@H](Cc1ccccc1)C(=O)N1CCC[C@H]1C(=O)N[C@H](C(=O)N[C@@H](CCCNC(=O)OCc1ccccc1)C(=O)NC1=NCCC(C)S1)C(C)C)NC(=O)OC(C)(C)C` (stereo partly drawn) [XJB-5-133, Boc-Leu-ψ[(E)-CH═CH]-^DPhe-Pro-Val-Orn(Cbz)-AMT], the “Fmole/l 0 M mitochondrial protein (relative quantification of conjugate concentration at the target site)” value [1] was 89.8 Fmole/l 0 M mitochondrial protein.

With `CC(C)C[C@@H](/C=C/[C@H](Cc1ccccc1)C(=O)NC1=NCCC(C)S1)NC(=O)OC(C)(C)C` (stereo partly drawn) [XJB-5-234, Boc-Leu-ψ[(E)-CH═CH]-^DPhe-AMT] the “Fmole/l 0 M mitochondrial protein (relative quantification of conjugate concentration at the target site)” value [1] was 1.45 Fmole/l 0 M mitochondrial protein.

`C/C(=C\[C@H](Cc1ccccc1)C(=O)N1CCC[C@H]1C(=O)N[C@H](C(=O)N[C@@H](CCCNC(=O)OCc1ccccc1)C(=O)NC1=NCCC(C)S1)C(C)C)[C@H](CC(C)C)NC(=O)OC(C)(C)C` (stereo partly drawn) [XJB-5-241, Boc-Leu-104 [(E)-C(CH3)═CH]-^DPhe-Pro-Val-Orn(Cbz)-AMT] was tested, and the “Fmole/l 0 M mitochondrial protein (relative quantification of conjugate concentration at the target site)” value [1] was 103.3 Fmole/l 0 M mitochondrial protein.
